The values that follow are results of earlier work, collected in patent publication US10980792B2, “Formulations of Cabozantinib” (Zhuhai Beihai Biotech Co., Ltd., priority 2016, dated 2021).

Structures are written as SMILES. Where only a bound is given, the exact number is not on record here.

Consider `COc1cc2nccc(Oc3ccc(NC(=O)C4(C(=O)Nc5ccc(F)cc5)CC4)cc3)c2cc1OC` [Cabozantinib, cabozantinib], for which the solubility in water entry is “practically insoluble”. Also, in the series with human plasma, the “protein bound in human plasma” value was at least 99.7%.
